Measured values published in ChEMBL document CHEMBL1146798, “QSAR of adenosine receptor antagonists. Part 3: Exploring physicochemical requirements for selective binding of 1,2,4-triazolo[5,1-i]purine derivatives with human adenosine A3 receptor subtype” (Bioorg Med Chem Lett, 2004).

test: Partition coefficient (logP); type: physicochemical; conditions: octanol/water

Point of comparison: `CCCCc1nc2nc[nH]c2c2nc(-c3ccccc3Cl)nn12`, logP 4.78. Against it:
- CCCCc1nc2nc[nH]c2c2nc(-c3ccc(Br)cc3)nn12 — higher, 5.05
- CCCCCc1nc2nc[nH]c2c2nc(-c3ccccc3)nn12 — within 0.2 log units, 4.64
- CCCCc1nc2[nH]cnc2c2nc(-c3ccc(C(C)(C)C)cc3)nn12 — higher, 5.93
- CCCc1nc2nc[nH]c2c2nc(-c3ccccc3)nn12 — lower, 3.81
- CCCCc1nc2[nH]cnc2c2nc(C)nn12 — lower, 2.57
- CCCCc1nc2[nH]cnc2c2nc(-c3ccc(OC)cc3)nn12 — lower, 4.1
- CCCCc1nc2nc[nH]c2c2nc(-c3ccc(OCC)cc3)nn12 — lower, 4.44
- Cc1nc2[nH]cnc2c2nc(-c3ccccc3)nn12 — lower, 2.82
- CCCCc1nc2[nH]cnc2c2nc(-c3cc(OC)c(OC)c(OC)c3)nn12 — lower, 3.85
- CCCCc1nc2nc[nH]c2c2nc(-c3ccc(-c4ccccc4)cc3)nn12 — higher, 5.9
- CCCCc1nc2nc[nH]c2c2nc(-c3ccc(F)cc3)nn12 — lower, 4.38
- CCCCc1nc2[nH]cnc2c2nc(-c3cccc(OC)c3)nn12 — lower, 4.1
- CCc1nc2[nH]cnc2c2nc(-c3ccccc3)nn12 — lower, 3.39
- CCCCc1nc2[nH]cnc2c2nc(-c3ccc(C)cc3)nn12 — within 0.2 log units, 4.71
- CCCCc1nc2[nH]cnc2c2nc(-c3ccco3)nn12 — lower, 2.84
- CCCCc1nc2nc[nH]c2c2nc(-c3ccc(O)cc3)nn12 — lower, 3.84
- CCCCc1nc2[nH]cnc2c2nc(-c3ccccc3)nn12 — lower, 4.23
- CCCCc1nc2nc[nH]c2c2nc(-c3ccc(Cl)cc3)nn12 — the same, 4.78
- CCCCc1nc2[nH]cnc2c2nc(-c3cccc(C)c3)nn12 — within 0.2 log units, 4.71
- CCCCc1nc2nc[nH]c2c2nc(-c3ccc(SC)cc3)nn12 — within 0.2 log units, 4.66
- CCCCc1nc2[nH]cnc2c2nc(-c3ccc(OCCC)cc3)nn12 — within 0.2 log units, 4.92
- CCCCc1nc2[nH]cnc2c2nc(-c3cccnc3)nn12 — lower, 2.89
- CCCCc1nc2[nH]cnc2c2nc(Cc3ccccc3)nn12 — lower, 4.33
- CCCCc1nc2[nH]cnc2c2nc(-c3ccc(C(F)(F)F)cc3)nn12 — higher, 5.15
- c1ccc(-c2nc3c4nc[nH]c4nc(-c4ccccc4)n3n2)cc1 — lower, 4.2
- CCCCc1nc2[nH]cnc2c2nc(-c3ccc(N(C)C)cc3)nn12 — lower, 4.51
- CCCCc1nc2nc[nH]c2c2nc(-c3cccc(Cl)c3)nn12 — the same, 4.78
- CCCCCCc1nc2nc[nH]c2c2nc(-c3ccccc3)nn12 — higher, 5.06
